Test results reported in patent publication US10675253B2, “Methods of diagnosis and treatment involving nitrite” (Board of Supervisors of Louisiana State University and …, priority 2017, dated 2020).
Where two headings read alike, the source gives them in different places.

How the values were obtained:
[1] = ascorbic acid as comparison agent; general statement; cited from earlier work
[2] = nitrite reduction to NO facilitated by ascorbic acid, DADS, or DATS; conditions: FIGS. 4, 6; over one hour
From the text: FIG. 4 is a line graph of experiments showing nitrite reduction to NO facilitated by ascorbic acid, DADS, or DATS;
FIG. 5 is a pair of line graphs of two experiments showing nitrite reduction to NO facilitated by ascorbic acid over one hour;
FIG. 6 is a pair of line graphs of two experiments showing nitrite reduction to NO facilitated by DADS over one hour;
FIG. 7 is a pair of line graphs of two experiments showing nitrite reduction to NO facilitated by DATS over one hour;
Turning to FIGS. 1-7, an embodiment of the disclosed invention, including a method of treatment of various conditions by increasing nitrite conversion to nitric oxide via DADS is described. This embodiment of the disclosed invention describes chemical reactions that may be useful for stimulating nitrite conversion to nitric oxide, namely diallyl disulfide (DADS) reduction of nitrite to nitric oxide. […] This would be useful for various purposes including unique ways to stimulate nitrite reduction to nitric oxide within an organism.
While it has been shown that increasing NO levels can be therapeutic for a number of conditions, the biochemical mechanism of nitrite reduction to NO, and thereby increasing NO levels, is poorly understood. Some agents can facilitate such reduction, such as ascorbic acid, but do so weakly. […]

xanthine oxidase (XO) = xanthine oxidase (XO) (Homo sapiens, UniProt P47989); experiment: XO dependent nitrite reduction to NO / XO activity; assay type: biochemical
xanthine oxidase (XO), sequence (P47989 whole entry, species assumed): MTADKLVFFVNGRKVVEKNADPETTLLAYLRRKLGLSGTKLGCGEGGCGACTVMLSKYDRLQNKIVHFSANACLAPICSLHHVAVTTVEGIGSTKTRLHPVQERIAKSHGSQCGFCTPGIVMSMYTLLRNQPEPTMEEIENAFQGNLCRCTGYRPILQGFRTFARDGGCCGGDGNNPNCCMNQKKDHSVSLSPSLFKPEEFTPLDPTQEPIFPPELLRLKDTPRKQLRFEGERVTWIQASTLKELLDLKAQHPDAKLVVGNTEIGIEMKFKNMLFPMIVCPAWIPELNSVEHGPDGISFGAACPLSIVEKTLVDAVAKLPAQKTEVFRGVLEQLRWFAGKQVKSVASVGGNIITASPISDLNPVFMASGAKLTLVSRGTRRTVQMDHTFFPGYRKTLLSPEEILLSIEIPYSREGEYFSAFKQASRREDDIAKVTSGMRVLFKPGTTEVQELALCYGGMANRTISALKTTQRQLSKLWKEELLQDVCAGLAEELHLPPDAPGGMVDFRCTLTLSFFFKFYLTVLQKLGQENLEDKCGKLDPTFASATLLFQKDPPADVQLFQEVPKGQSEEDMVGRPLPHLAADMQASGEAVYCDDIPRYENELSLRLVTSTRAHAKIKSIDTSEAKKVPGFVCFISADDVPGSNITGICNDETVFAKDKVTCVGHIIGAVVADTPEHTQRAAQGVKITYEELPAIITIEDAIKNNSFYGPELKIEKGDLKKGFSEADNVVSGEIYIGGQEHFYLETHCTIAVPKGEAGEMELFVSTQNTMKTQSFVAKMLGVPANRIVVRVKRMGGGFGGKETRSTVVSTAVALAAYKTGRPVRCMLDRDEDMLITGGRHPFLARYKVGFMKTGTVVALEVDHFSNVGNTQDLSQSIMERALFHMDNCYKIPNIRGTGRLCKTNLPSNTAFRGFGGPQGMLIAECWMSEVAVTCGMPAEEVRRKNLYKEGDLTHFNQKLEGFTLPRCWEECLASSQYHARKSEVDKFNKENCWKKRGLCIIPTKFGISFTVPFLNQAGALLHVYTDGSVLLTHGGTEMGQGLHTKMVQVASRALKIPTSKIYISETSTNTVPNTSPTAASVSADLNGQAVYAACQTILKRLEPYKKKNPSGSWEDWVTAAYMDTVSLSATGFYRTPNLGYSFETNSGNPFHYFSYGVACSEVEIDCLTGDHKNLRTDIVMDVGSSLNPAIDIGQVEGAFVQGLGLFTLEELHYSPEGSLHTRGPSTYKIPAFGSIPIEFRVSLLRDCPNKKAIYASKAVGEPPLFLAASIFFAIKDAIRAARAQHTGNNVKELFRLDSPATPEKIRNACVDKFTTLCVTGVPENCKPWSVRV
From the text: Referring to FIGS. 1-8, a further embodiment of the disclosed invention, including a method of treatment of various conditions by increasing XO associated nitrite conversion to nitric oxide is described. This embodiment of the disclosed invention describes chemical reactions that may be useful for stimulating xanthine oxidase (XO) to increase nitrite conversion to nitric oxide, namely diallyl trisulfide (DATS) stimulation of XO reduction of nitrite to nitric oxide. This would be useful for various purposes including unique ways to stimulate nitrite reduction to nitric oxide within an organism.
DATS may therefore be administered alone, or for example, with nitrite and/or XO, as a therapeutic for known NO mediated conditions, including inflammation, wound healing, and infections. DATS can be administered in a variety of methods, including nanoformulation compounds, especially for creams or lotions.

## O=C1O[C@H]([C@@H](O)CO)C(O)=C1O [ascorbic acid]
[1]
  nitrite reduction to NO: weakly

## C=CCSSCC=C [DADS, diallyl disulfide]
[2]
  nitrite reduction to NO: selectively stimulate nitrite reduction to NO

## C=CCSSSCC=C [DATS, diallyl trisulfide]
Xanthine oxidase (XO)
  XO dependent nitrite reduction to NO: selectively increases XO dependent nitrite reduction to NO
Xanthine oxidase (XO); FIG. 8
  XO activity & NO production: differentially affects XO activity & NO production
